Measurements published in patent US7132546B2, “Aniline derivatives or salts thereof and cytokine production inhibitors containing the same” (Ishihara Sangyo Kaisha, Ltd., priority 2000, dated 2006).

Columns and labels:
[1] = tested on: interleukin 5 (IL-5) production; test: Cytokine production inhibitory effect: IL-5 production by murine spleen cells treated with anti-mouse CD3 antibody and IL-2 (ELISA); assay type: cell-based, Balb/c mice; conditions: test compound 100 ppm, anti-CD3 antibody + IL-2, 40 to 48 hours, read-out: IL-5 production inhibitory ratio (%)
Method: (§1) Murine spleen cells were treated with anti-mouse CD3 antibody and IL-2 to induce cytokine production. The test compounds were added to the cytokine production system to evaluate their inhibitory effect. Namely, anti-mouse CD3 antibody adjusted to from 10 to 20 μg/ml with borate buffered physiological saline (pH 8.5) was pipetted into a 96-well cell culture plate in an amount of 50 μl/well and left to stand at 4° C. for 18 hours. The unreacted solution was removed, washing with Hank's buffer solution was carried out once, and IL-2 adjusted to 10 ng/ml with a RPMI liquid containing 10% fetal bovine serum (FCS) was pipetted in an amount of 50 μl/well. For the negative control group, a solution alone without anti-CD3 antibody nor IL-2 was applied. Then, the diluted solution of each of the test compounds (concentration: 100 ppm unless otherwise specified) was pipetted in an amount of 50 μl/well, and a cell suspension of 1×10^7 cells/ml, prepared from spleen of Balb/c mice (female, 7 to 10 week old) was pipetted thereinto in an amount of 100 μl/well. After cultivation in an incubator (37° C., 5% carbon dioxide gas) for from 40 to 48 hours, the culture supernatant was recovered to measure the cytokine production amount by ELISA method.
(§2) With respect to interleukin 5 (IL-5) as a typical Th2 type cytokine and interferon γ (IFN-γ) as a typical Th1 type cytokine, measurements were carried out by the following methods, respectively. Namely, quantitative determination of IL-5 was carried out by the following ELISA method. First, rat anti-mouse IL-5 antibody (Endogen Code No. MM-550C) as a primary antibody was diluted with carbonate buffer solution (pH 9.5) to 1 μg/ml, and spread in a 96 well plate (IWAKI, Code No. 3860-096) in an amount of 50 μl/well for coating at 4° C. overnight (16 to 24 hours). Then, the plate was subjected to blocking at 37° C. for 2 hours by phosphate buffered physiological saline containing 10% FCS (pH 7.2) (blocking buffer solution) (250 μl/well). The plate was washed with PBS (washing buffer) containing 0.05% Tween 20 (Nacalai Tesque, Code No. 281-51) four times, and a diluted liquid of the culture supernatant was spread in an amount of 50 μl/well, followed by incubation at room temperature for 1 hour. For preparation of a standard line, recombinant mouse IL-5 (R&D systems, Code No. 405-ML) was employed. The plate was washed with a washing buffer four times, and biotin-labeled rat anti-mouse IL-5 antibody (Pharmingen, Code No. 18062D) as a secondary antibody diluted to 0.5 μg/ml with a blocking buffer containing 0.05% Tween 20 was added thereto (50 μl/well), followed by incubation at room temperature for 1 hour. The plate was washed with a washing buffer four times, strept avidin-labeled peroxidase (ProZyme, Code No. CJ30H001) diluted 800 times with a blocking buffer containing 0.05% Tween 20 was added thereto (50 μl/well), followed by reaction at room temperature for 15 minutes. The plate was washed with a washing buffer four times, and a […] substrate solution (SIGMA, Code No. T-8665) was added thereto in an amount of 100 μl/well for color developing for from 10 to 20 minutes. A 1M sulfuric acid solution was added thereto in an amount of 100 μl/well to terminate the reaction, and absorption (wavelength 450 nm) was measured by means of micro plate reader (SPECTRA max, Wako Pure Chemicals Industries, Ltd.). Quantitative determination of IFN-γ was carried out in the same manner as the measurement of IL-5, employing rat anti-mouse IFN-γ antibody (Pharmingen, Code No. 18181D) and biotin labeled rat anti-mouse IFN-γ antibody (Pharmingen, Code NO. 18112D), as a primary antibody and a secondary antibody, respectively. For preparation of a standard line, recombinant mouse IFN-γ (GENZYME, Code No. 3485) was employed. The experiment was carried out in duplicate, and the average of the cytokine production amount was obtained. […]

[2] = tested on: interferon γ (IFN-γ) production; test: Cytokine production inhibitory effect: IFN-γ production by murine spleen cells treated with anti-mouse CD3 antibody and IL-2 (ELISA); assay type: cell-based, Balb/c mice; conditions: test compound 100 ppm, anti-CD3 antibody + IL-2, 40 to 48 hours, read-out: IFN-γ production inhibitory ratio (%)
Method: as §1, §2

Compound	inhibition at 100 ppm [1]	inhibition at 100 ppm [2]	melting point
O=C(Nc1ccc(Oc2ncc(C(F)(F)F)cc2Cl)c(O)c1)c1cc([N+](=O)[O-])ccc1Cl [compound 126]	100%	100%	194 to 197 °C
O=C(Nc1ccc(Oc2ccc(C(F)(F)F)cc2Cl)cc1)c1cc([N+](=O)[O-])ccc1Br [compound 96]	100%	100%	167 to 172 °C
COC(=O)c1cccc(C(=O)Nc2ccc(C34CC5CC(CC(C5)C3)C4)cc2C)c1 [compound 34]	88%	97%	184 °C
CN(c1ccc(NC(=O)c2cc([N+](=O)[O-])ccc2Cl)cc1)c1ncc(C(F)(F)F)cc1Cl [compound 133]	99%	100%	212 to 216 °C
O=C(Nc1ccc(Oc2ncc(C(F)(F)F)cc2Cl)c(N2CCCCC2)c1)c1cc([N+](=O)[O-])ccc1Cl [compound 131]	100%	100%	194 to 198 °C
COc1ccc(NC(=O)c2cc([N+](=O)[O-])ccc2Cl)cc1 [compound 28]	100%	100%	154 °C
Cc1cc(Oc2ccc(C(F)(F)F)cc2)ccc1NC(=O)c1cc([N+](=O)[O-])ccc1Cl [compound 31]	62%	63%	196 °C
O=C(Nc1ccc(Oc2ncc(C(F)(F)F)cc2Cl)c(C2CCCCC2)c1)c1cc([N+](=O)[O-])ccc1Cl [compound 114]	100%	100%	
O=C(Nc1ccc(Nc2ccccc2)cc1)c1cc([N+](=O)[O-])ccc1Cl [compound 65]	100%	100%	
O=C(Nc1ccc(Oc2ccc(C(F)(F)F)cc2Cl)cc1)c1cc([N+](=O)[O-])ccc1Cl [compound 89]	87%	99%	168 °C
Cc1cc(C23CC4CC(CC(C4)C2)C3)ccc1NC(=O)c1cccc(Cl)c1[N+](=O)[O-] [compound 58]	97%	96%	256 °C
COC(=O)c1cc(Oc2ncc(C(F)(F)F)cc2Cl)ccc1NC(=O)c1cc([N+](=O)[O-])ccc1Cl [compound 100]	92%	93%	154 to 158 °C
Cc1cc(NC(=O)c2cc([N+](=O)[O-])ccc2Cl)ccc1Nc1ncc(C(F)(F)F)cc1Cl [compound 148]	94%	81%	189 to 192 °C
O=C(Nc1ccc(Oc2ccc(C(F)(F)F)cn2)c(Cl)c1)c1cccc(Cl)c1 [compound 6]	100%	100%	160 to 161 °C
O=C(Nc1ccc(Oc2ncc(C(F)(F)F)cc2Cl)cc1)c1cc([N+](=O)[O-])ccc1Br [compound 99]	100%	89%	191 to 195 °C
O=C(Nc1ccc(Nc2ncc(C(F)(F)F)cc2Cl)cc1)c1cc([N+](=O)[O-])ccc1Cl [compound 132]	99%	100%	215 to 218 °C
O=C(Nc1cccc(C(F)(F)F)c1)c1cc([N+](=O)[O-])ccc1Cl [compound 33]	100%	100%	168 °C
CN(c1cc(NC(=O)c2cc([N+](=O)[O-])ccc2Cl)ccc1O)c1ncc(C(F)(F)F)cc1Cl [compound 129]	86%	67%	273 to 276 °C
O=C(Nc1ccc(Oc2ncc(C(F)(F)F)cc2Cl)c(Cl)c1)c1cc([N+](=O)[O-])ccc1Cl [compound 113]	96%	97%	222 to 225 °C

Compound	inhibition at 100 ppm [1]	inhibition at 100 ppm [2]	melting point
O=C(Nc1ccc(S(=O)(=O)c2ncc(C(F)(F)F)cc2Cl)cc1)c1cc([N+](=O)[O-])ccc1Cl [compound 104]	100%	100%	
O=C(Nc1nc(-c2ccc(Cl)cc2)cs1)c1cc([N+](=O)[O-])ccc1Cl [compound 141]	100%	100%	217 to 221 °C
O=C(Nc1ccc(Oc2ccc(C(F)(F)F)cn2)c(Cl)c1)c1ccccc1Cl [compound 71]	89%		168 to 169 °C
O=C(Nc1ccccc1C(F)(F)F)c1cc([N+](=O)[O-])ccc1Cl [compound 39]	97%	100%	
O=C(Nc1ccc(Oc2ccc(C(F)(F)F)cn2)c(Cl)c1)c1ccccc1 [compound 14]	46%		170 to 172 °C
O=C(Nc1ccc(NC23CC4CC(CC(C4)C2)C3)nc1)c1cc([N+](=O)[O-])ccc1Cl [compound 147]	99%	100%	
O=C(Nc1ccc(Oc2ccc(C(F)(F)F)cn2)c(Cl)c1)c1cc(Cl)cc(Cl)c1O [compound 16]	100%		176 to 178 °C
O=C(Nc1ccc(OC2C3CC4CC(C3)CC2C4)nc1)c1cc([N+](=O)[O-])ccc1Cl (stereo not drawn) [compound 124]	100%	100%	
Cc1cc(C23CC4CC(CC(C4)C2)C3)ccc1NS(=O)(=O)c1cc(Cl)ccc1Cl [compound 24]	100%		200 °C
O=C(Nc1ccc(Oc2ccc(C(F)(F)F)cn2)c(Cl)c1)c1ccc(F)cc1F [compound 11]	37%		145 to 147 °C
O=C(Nc1ccc(Oc2ccc(C(F)(F)F)cn2)c(Cl)c1)c1ccc(F)cc1 [Compound No. 12]	33%		174 to 176 °C
Cc1ccccc1NC(=O)c1cc([N+](=O)[O-])ccc1Cl [compound 19]	96%	88%	
O=C(Nc1ccc(Oc2ncc(C(F)(F)F)cc2Cl)c([N+](=O)[O-])c1)c1cc([N+](=O)[O-])ccc1Cl [compound 108]			233 to 236 °C
O=C(Nc1ccc(Oc2ccc(C(F)(F)F)cn2)c(Cl)c1)c1ccc(Oc2ccc(C(F)(F)F)cn2)c(Cl)c1 [compound 72]	51%		206 to 209 °C
O=C(Nc1ccc(Oc2ccc(C(F)(F)F)cn2)c(Cl)c1)c1ccccc1F [Compound No. 13]	36%		141 to 143 °C
O=C(Nc1ccc([S+]([O-])c2ncc(C(F)(F)F)cc2Cl)cc1)c1cc([N+](=O)[O-])ccc1Cl (stereo not drawn) [compound 103]	100%	100%	
O=C(Nc1ccc(OC23CC4CC(CC(C4)C2)C3)cc1)c1cc([N+](=O)[O-])ccc1Cl [compound 134]	97%	98%	
O=C(Nc1ccc(Oc2ccc(C(F)(F)F)cc2Cl)cc1)c1cc([N+](=O)[O-])ccc1F [compound 95]	100%	100%	
Cc1cc(C23CC4CC(CC(C4)C2)C3)ccc1N(C)C(=O)c1cc([N+](=O)[O-])ccc1Cl [compound 102]	100%	100%	
